From patent EP1800684A1, “Novel alkyl phospholipid derivatives and uses thereof” (Zentaris GmbH, priority 2005, dated 2007)
In brackets after ≈: the same amount, converted by molar mass. Read-outs that look alike come from different tables or passages of the source. Values belong to the compound of their own block, whether it stands above or below them.

Assays:
Format in all cases: cell-based
[1] = tested on: Candida albicans (ATCC 10231); test: Anti-fungal susceptibility test (microdilution), fungus A
Protocol: (§1) The antifungal activities of the test compounds (compounds of the invention and known prior art compounds) were measured according to standard microdilution methods (Cryptococcus/Aspergillus: Ghannoum et al., Journal of Clinical Microbiology 1992, 30 (11): 2881-2886; Candida: Reference method for broth dilution susceptibility testing of yeast: proposed standard, NCCLS document M27-P, National Committee for Clinical Laboratory Standards 1992, Villanova, Pa).
(§2) A serial dilution series starting from 64 µg/mL test compound per well down to 0.125 µg/mL test compound per well was applied for each test compound on each fungus. The MIC of each compound was defined as the concentration which produces no visible growth after 48 hours (Candida) and 72 hours (Cryptococcus, Aspergillus) of culture at 35° C.
(§3) The following fungi were assessed: • A) Candida albicans (ATCC 10231) • B) Candida albicans (ATCC 90028) • C) Candida albicans (strain TS3, Shrikantha et al., Journal of Bacteriology 2000, 182(6):1580-1591) • D) Candida parapsilosis (ATCC 22019) • E) Cryptocoocus neoformans (ATCC 90112) • F) Cryptocoocus neoformans (strain H99; Ganendren et al., Antimicrobial Agents and Chemotherapy, 2004, 48(5):1561-1569) • G) Cryptocoocus gattii (ATCC 32608) • H) Aspergillus fumigatus (ATCC 204305) • I) Aspergillus fumigatus (strain 322-384)

[2] = tested on: Candida albicans (ATCC 90028); test: Anti-fungal susceptibility test (microdilution), fungus B
Protocol: as §1, §2, §3

[3] = tested on: Candida albicans (strain TS3); test: Anti-fungal susceptibility test (microdilution), fungus C; settings: no visible growth after 48 hours at 35° C
Protocol: as §1, §2, §3

[4] = tested on: Candida parapsilosis (ATCC 22019); test: Anti-fungal susceptibility test (microdilution), fungus D
Protocol: as §1, §2, §3

[5] = tested on: Cryptocoocus neoformans (ATCC 90112); test: Anti-fungal susceptibility test (microdilution), fungus E
Protocol: as §1, §2, §3

[6] = tested on: Cryptocoocus neoformans (strain H99); test: Anti-fungal susceptibility test (microdilution), fungus F; settings: fungus F; no visible growth after 72 hours at 35° C; read-out: MIC
Protocol: as §1, §2, §3

[7] = tested on: Cryptocoocus gattii (ATCC 32608); test: Anti-fungal susceptibility test (microdilution), fungus G; settings: fungus G; no visible growth after 72 hours at 35° C; read-out: MIC
Protocol: as §1, §2, §3

[8] = tested on: Aspergillus fumigatus (ATCC 204305); test: Anti-fungal susceptibility test (microdilution), fungus H
Protocol: as §1, §2, §3

[9] = tested on: Aspergillus fumigatus (strain 322-384); test: Anti-fungal susceptibility test (microdilution), fungus I; settings: no visible growth after 72 hours at 35° C
Protocol: as §1, §2, §3

[10] = tested on: Trypanosoma cruzi (Tulahuan-LACZ amstigotes in PEM); test: In vitro drug activity assay, protozoon A (amastigotes in murine peritoneal macrophages, CPRG readout); settings: infected macrophages exposed for 3 days
Protocol: Murine (CD1) peritoneal macrophages were harvested 24 hours after starch induction and dispensed into 96-well plates at a concentration of 4 x 10^5 mL. After 24 hours, the cells were infected with Trypanosoma cruzi Tulahuan LAC-Z amastigotes (grown and cultured according to Buckner et al., Infection and Immunity 1999, 67(1): 403-409). 24 hours later, the infected cells were exposed to the test compounds (compounds of the invention as well as known prior art compounds) for 3 days and 50 µL of 500 µM CPRG-1% Nonidet P-40 was added to each well. The plates were read after 2 to 5 hours at 570 nm (Buckner et al., Antimicrobial Agents and Chemotherapy 1996, 40(11): 2592-2597). ED50 values were calculated with Msxlfit (IDBS).
(§4) The following protozoa were assessed: • A) Trypanosoma cruzi (Tulahuan-LACZ amstigotes in PEM, Lorente SO et al., Antimicrobial agents and chemotherapy 2004, 48(8): 2937-2950; Buckner et al., Infection and Immunity 1999, 67(1): 403-409; Buckner et al., Antimicrobial Agents and Chemotherapy 1996, 40(11): 2592-2597) • B) Trypanosoma brucei rhodesiense (strain STIB900, Lorente SO et al., Antimicrobial agents and chemotherapy 2004, 48(8): 2937-2950; Habtemariam S, BMC Pharmacology 2003, 3:6) • C) Plasmodium falciparum (strain K1, Korsinczky M et al., Antimicrobial agents and chemotherapy 2000, 44(8): 2100-2108; Thaitong S and Beale GH, Trans. R. Soc. Trop. Med. Hyg. 1981, 75: 271-273; Trager W and Jensen JB, Science 1976, 193: 673-675) • D) Plasmodium falciparum (strain 3D7, Mu et al., PLoS Biology 2005, 3(10): e335)

[11] = tested on: Trypanosoma brucei rhodesiense (strain STIB900); test: In vitro drug activity assay, protozoon B (bloodstream form trypomastigotes, Alamar Blue); settings: incubated for 72 hours
Protocol: Trypanosoma brucei rhodesiense STIB900 bloodstream form trypomastigotes were maintained in HMI-18 medium (Hirumi H, Hirumi K, J Parasitol. 1989, 75(6):985-989) with 15% heat-inactivated fetal calf serum at 37°C, 5% CO2, humidified atmosphere. Trypomastigotes were washed and resuspended in fresh medium at a concentration of 2 x 10^5 mL. Test compounds were given to the trypomastigotes and plates were incubated for 72 hours at 37°C, 5% CO2, humidified atmosphere. At 72 hours the plates were assessed microscopically before Alamar Blue was added (Raz et al., Acta Trop. 1997, 68: 139-147). Plates were read after 5 to 6 hours at EX/EM 530/585 nm with a filter cutoff at 550 nm. ED50 values were calculated with Msxlfit (IDBS).
as §4

[12] = tested on: Plasmodium falciparum (strain K1); test: In vitro drug susceptibility assay, protozoon C (3[H]-hypoxanthine method)
Protocol: (§5) Plasmodium falciparum strain K1 and strain 3D7 parasites were cultured according to Trager W and Jensen JB (Science 1976, 193: 673-675). In vitro drug susceptibility assays with the test compounds were carried out according to Korsinczky M et al. (Antimicrobial agents and chemotherapy 2000, 44(8): 2100-2108) and Fivelman QL et al. (Antimicrobial agents and chemotherapy 2004, 48(11): 4097-4102) using a ^3[H]-hypoxanthine radioisotope method. ED50 values were calculated with Msxlfit (IDBS).
as §4

[13] = tested on: Plasmodium falciparum (strain 3D7); test: In vitro drug susceptibility assay, protozoon D (3[H]-hypoxanthine method)
Protocol: as §5, §4

[14] = tested on: RKOp21 (human colon adenocarcinoma) cells; test: XTT cytotoxicity assay, RKOp21 cells; settings: 48 h, 2 days of continuous drug exposure
Protocol: (§6) Human tumor cell lines KB/HeLa (ATCC CCL17, human cervix carcinoma), PC3 (ATCC CRL1435, human prostate carcinoma) and RKOp21 (human colon adenocarcinoma) cells were used in an automated XTT screening assay for the assessment of cytotoxicity.
(§7) The XTT assay quantifies cellular metabolic activity which correlates with cell viability and cell number. Test compounds (selected compounds of the invention and known substances as controls) are dissolved in culture medium at 600µM and added to the tumor cells in 10 different concentrations in a semi-logarithmic fashion starting from 100 µM as highest concentration.
(§8) 48h later cellular metabolic activity of cells treated with test compounds is quantified by measurement of the absorbance at 490nm (conversion of XTT dye) in comparison to untreated control cells (100% viability).
(§9) KB/HeLa and PC3 cells were cultivated in RPMI medium supplemented with 10% heat inactivated fetal calf serum, 2 mM glutamine, 100 U/ml penicillin, and 100 µg/ml streptomycin. RKOp21 cells were grown in DMEM supplemented with 10% heat inactivated fetal calf serum, 2 mM glutamine, 100 U/ml penicillin, and 100 µg/ml streptomycin. All cells were cultured at 37°C in 5% CO2 humidified air.
(§10) On the first day of the experiment cells were harvested from exponential phase cultures by trypsination, counted and plated into 96 well flat-bottom micro titer plates depending on the cell line as listed below:
(§11) After a 24h recovery to allow the cells to resume exponential growth, the test compounds were diluted immediately prior to use and transferred in 25µl volume to the wells.
(§12) Following 2 days of continuous drug exposure 50µl of freshly prepared XTT-PMS solution (2% […] PMS in PBS + 98% 1 mg/ml XTT in RPMI 1640 without phenol red) was added to the wells. To measure the proportion of living cells, the cells were incubated for 3 h with XTT-PMS reagent at 37°C, 5% CO2, humidified atmosphere allowing to form the formazan salt. The amount of soluble formazan salt produced by cellular reduction of XTT is quantified by measuring the absorbance at 490nm using the Biomek® 2000 ELISA plate reader.
(§13) %-inhibition (cytotoxicity) of each test compound was calculated in relation to untreated control cells. Inhibition curves were generated and IC50 values calculated by using GraphPad Prism.

[15] = tested on: PC3 (ATCC CRL1435, human prostate carcinoma); test: XTT cytotoxicity assay, PC3 cells; settings: PC-3, 48 h, 2 days of continuous drug exposure
Protocol: as §6, §7, §8, §9, §10, §11, §12, §13

[16] = tested on: KB/HeLa (ATCC CCL17, human cervix carcinoma); test: XTT cytotoxicity assay, KB/HeLa cells; settings: 48 h, 2 days of continuous drug exposure
Protocol: as §6, §7, §8, §9, §10, §11, §12, §13

[17] = Candida albicans, ATCC10231, no visible growth after 48 hours at 35° C, read-out: MIC
[18] = Candida albicans, ATCC90028, no visible growth after 48 hours at 35° C, read-out: MIC
[19] = Candida albicans, read-out: MIC
[20] = ATCC22019, no visible growth after 48 hours at 35° C, read-out: MIC
[21] = fungus E, no visible growth after 72 hours at 35° C, read-out: MIC
[22] = Aspergillus fumigatus, ATCC204305, no visible growth after 72 hours at 35° C, read-out: MIC
[23] = Aspergillus fumigatus, read-out: MIC
[24] = no visible growth after 48 hours at 35° C

Compound: CCCCCCCCCCCCCCCCOP(=O)([O-])OC1CC[N+](C)(Cc2ccccc2)CC1 (stereo not drawn) [Compound 1, Phosphoric acid 1-benzyl-1-methyl-piperidin-4-yl ester hexadecyl ester]
MIC [1, 17]: 2 µg/mL (≈ 3.92 µM) | MIC [2, 18]: 1 µg/mL (≈ 1.96 µM) | MIC [3, 19]: 1.5 µg/mL (≈ 2.94 µM) | MIC [4, 20]: 3 µg/mL (≈ 5.89 µM) | MIC [5, 21]: 1.5 µg/mL (≈ 2.94 µM) | MIC [6]: 2 µg/mL (≈ 3.92 µM) | MIC [7]: 1 µg/mL (≈ 1.96 µM) | MIC [8, 22]: 2 µg/mL (≈ 3.92 µM) | MIC [9, 23]: 2 µg/mL (≈ 3.92 µM) | ED50 (µg/mL) [10]: 1,71 µg/mL | ED50 (µg/mL) [11]: 18,80 µg/mL | ED50 (µg/mL) [12]: 6,93 µg/mL | ED50 (µg/mL) [13]: 9,97 µg/mL

Compound: CCCCCCCCCCCCCCCCOP(=O)([O-])OC1CC[N+](C)(CCc2ccccc2)CC1 (stereo not drawn) [Compound 4, Phosphoric acid 1-methyl-1-phenethyl-piperidin-4-yl ester hexadecyl ester]
ED50 (µg/mL) [11]: 12,29 µg/mL | ED50 (µg/mL) [12]: 5,44 µg/mL | ED50 (µg/mL) [13]: 15,32 µg/mL

MIC [1, 17]: 0.75 µg/mL | MIC [2, 18]: 0.75 µg/mL | MIC [3, 19]: 1 µg/mL | MIC [4, 20]: 0.75 µg/mL | MIC [5, 21]: 2 µg/mL | MIC [6]: 1.5 µg/mL | MIC [7]: 0.75 µg/mL | MIC [8, 22]: 2 µg/mL | MIC [9, 23]: 2 µg/mL
Compound: CCCCCCCCCCCCCCCCOCCCOP(=O)([O-])OCC[N+](C)(C)C [Compound 8, Phosphoric acid 3-hexadecyloxy-propyl ester 2-trimethylammonium-ethyl ester]

Compound: CCCCCCCC/C=C\CCCCCCCCCCCCOP(=O)([O-])OC1CC[N+](C)(C)CC1 [Compound 17, Phosphoric acid 1,1-dimethyl-piperidin-4-yl ester (Z)-docos-13-enyl ester]
IC50 [14]: 32.5 µM | IC50 [15]: 18.3 µM | IC50 [16]: 16.6 µM

Compound: CCCCCCCC/C=C\CCCCCCCCOP(=O)(O)OCCN1CCCCC1 [Compound 19, Phosphoric acid (Z)-octadec-9-enyl ester 2-piperidin-1-yl-ethyl ester]
IC50 [14]: > 100 µM | IC50 [15]: > 100 µM | IC50 [16]: > 100 µM

Compound: CCCCCCCCCCOCCOCCOP(=O)([O-])OCC[N+]1(C)CCCCC1 [Compound 20, Phosphoric acid 2-(2-decyloxy-ethoxy)-ethyl ester 2-(1-methylpiperidin-1-yl)-ethyl ester]
IC50 [14]: > 100 µM | IC50 [15]: > 100 µM | IC50 [16]: > 100 µM

Compound: CCCCCCCCCCCCCCCCCCOP(=O)([O-])OCC[As+](C)(C)C [Compound 22]
MIC [1, 24]: 0.5 µg/mL | MIC [2, 24]: 1 µg/mL | MIC [3]: 1 µg/mL | MIC [4, 24]: 1 µg/mL | MIC ([8]; no visible growth after 72 hours at 35° C): 4 µg/mL | MIC [9]: 2 µg/mL

MIC [1, 17]: > 64 µg/mL | MIC [2, 18]: > 64 µg/mL | MIC [3, 19]: > 64 µg/mL | MIC [4, 20]: > 64 µg/mL | MIC ([5]; 72 h): 4 µg/mL (≈ 8.17 µM) | MIC [6]: 3 µg/mL (≈ 6.13 µM) | MIC [7]: 1.5 µg/mL (≈ 3.06 µM) | MIC [8, 22]: > 64 µg/mL | MIC [9, 23]: > 64 µg/mL
Compound: CCCCCCCC/C=C\CCCCCCCCCCCCOP(=O)([O-])OCC[N+](C)(C)C [ErPC, (13Z)-docosenylphosphocholine, reference compound]

Compound: O=C(Cn1ccnc1[N+](=O)[O-])NCc1ccccc1 [benznidazole, Benznidazole, reference compound]
ED50 (µg/mL) [10]: 0,22 µg/mL

Compound: CCCCCCCCCCCCCCCCOP(=O)([O-])OCC[N+](C)(C)C [miltefosine, reference compound]
IC50 [14]: 18 µM | IC50 [15]: 9.39 µM | IC50 [16]: 8.66 µM | ED50 (µg/mL) [10]: 0,63 µg/mL

Compound: CCCCCCCCCCCCCCCCCCOP(=O)([O-])OC1CC[N+](C)(C)CC1 [perifosine, octadecyl-1,1-dimethyl-piperidino-4-yl-phosphate, reference compound]
IC50 [14]: 3.31 µM | IC50 [15]: 3.22 µM | IC50 [16]: 2.37 µM
